The text below walks through data of patent publication EP3057949B1, “SECONDARY ALCOHOL QUINOLINYL MODULATORS OF ROR GAMMA T” (Janssen Pharmaceutica NV, priority 2013, dated 2015).

For assay [1], the system named is IL-17 production by CD4 T cells. The experiment in a line: Human Th17 Assay (IL-17 production by CD4 T cells). Type of assay: cell-based. The conditions noted are these: IL-17 in supernatant after 3 days, Th17 differentiation conditions. An excerpt:
The human Thl7 assay tests the effect of RORyt modulatory compounds on IL-17 production by CD4 T cells under conditions which favor Th17 differentiation.
Total CD4^+ T cells were isolated from the peripheral blood mononuclear cells (PBMC) of healthy donors using a CD4^+ T cell isolation kit II, following the manufacturer's instructions (Miltenyi Biotec). Cells were resuspended in a medium of RPMI-1640 supplemented with 10% fetal bovine serum, penicillin, streptomycin, […], and β-mercaptoethanol and were added to 96-well plates at 1.5x10^5 per 100 µL per well. 50 µL of compound at titrated concentrations in DMSO were added into each well at final DMSO concentration at 0.2%. Cells were incubated for 1 hour, then 50 µL of Th17 cell differentiation medium was added to each well. The final concentrations of antibodies and cytokines (R&D Systems) in differentiation medium were: 3x10^6/mL anti-CD3/CD28 beads (prepared using human T cell activation/expansion kit, Miltenyi Biotec), 10 µg/mL anti-IL4, 10 µg/mL anti-IFNγ, 10 ng/mL IL1β, 10 ng/mL IL23, 50 ng/mL IL6, 3 ng/mL TGFβ and 20 U/mL IL2. Cells were cultured at 37 °C and 5% CO2 for 3 days. Supernatants were collected and the accumulated IL-17 in culture was measured by using MULTI-SPOT® Cytokine Plate following manufacture's instruction (Meso Scale Discovery). The plate was read using Sector Imager 6000, and IL-17 concentration was extrapolated from the standard curve. The IC50s were determined by GraphPad.

Assay [2] addresses T1, human RORγt ligand binding domain (RORγt LBD) (Homo sapiens, UniProt P51449).
T1 construct: His-tag (N); TurboTEV protease cleavage site (ENLYFQG) (N); made in house; host or cells: E. coli (pHIS1, modified pET vector)
T1 sequence (P51449 258-518): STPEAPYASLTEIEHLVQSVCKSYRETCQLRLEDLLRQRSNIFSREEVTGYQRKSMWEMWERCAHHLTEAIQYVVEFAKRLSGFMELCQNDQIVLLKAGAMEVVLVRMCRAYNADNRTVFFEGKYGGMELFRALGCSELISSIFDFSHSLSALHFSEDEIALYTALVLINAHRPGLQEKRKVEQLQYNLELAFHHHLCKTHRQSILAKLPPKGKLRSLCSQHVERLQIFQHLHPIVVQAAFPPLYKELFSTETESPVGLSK
In words: ThermoFluor® Assay (RORγt thermal shift binding). To be noted: 0.065 mg/mL RORγt, 60 µM 1,8-ANS, pH 7.0; estimated from concentration response curves. A digest of the protocol:
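Thermal shift of 0.065 mg/mL RORγt with 60 µM 1,8-ANS in 100 mM Hepes pH 7.0, 10 mM NaCl, 2.5 mM GSH, 0.002% Tween-20, heated at 1 °C/min; fluorescence at 500 nm. KD estimated from concentration-response of ΔTm.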

A further assay deals with T2, human RORγt LBD (Homo sapiens, UniProt P51449).
T2 construct: expressed in transfected cells; host or cells: HEK293T
T2 sequence (P51449 258-518): T1 sequence (P51449 258-518)
In words: RORγt (LBD) Reporter Assay (GAL4 luciferase, HEK293T cells). The assay is classed as cell-based. To be noted: for inhibition at 6 µM: HEK-293T; for inhibition at 6 µM / RORγt (LBD) Reporter Assay, % inhibition @ 6 µM: 6 µM compound; for IC50: compounds for 24 hours. Here is the method: Compounds were assessed for RORgt functional modulation using either the RORgt ligand binding domain (LBD) reporter assay, or the RORgt full-length (FL) reporter assay.
A reporter assay was used to test functional activity of RORγt modulatory compounds on transcriptional activation driven by the RORγt LBD. Cells used in the assay were co-transfected with two constructs. The first construct, pBIND-RORγt LBD, contained the wild type human RORγt LBD fused to the DNA binding domain of the GAL4 protein. The second construct, pGL4.31 (Promega Cat no. C935A), contained multiple GAL4 responsive DNA elements upstream of firefly luciferase. […] The mutant construct was called pBIND-RORγt-AF2.
The pBIND vector contains the GAL4 DNA Binding Domain (GAL4 DBD) and the renilla luciferase gene under control of the SV40 promoter. Renilla luciferase expression serves as a control for transfection efficiency and cell viability.
The reporter assay was performed by transiently transfecting HEK293T cells with 5 µg of pBIND-RORγt LBD or pBIND-RORγt LBD-AF2 and 5 µg pGL4.31 (Promega Cat no. C935A) using Fugene 6 (Invitrogen Cat no. E2691) at a 1:6 ratio of DNA: Fugene 6 in a T-75 flask in which cells were at least 80% confluent. Twenty four hours after bulk transfection, cells were plated into 96-well plates at 50,000 cells/well in phenol-red free DMEM containing 5% Lipid Reduced FCS and Pen/Strep. Six hours after plating, cells were treated with compounds for 24 hours. Media was removed and cells were lysed with 50 µL 1x Glo Lysis Buffer (Promega). Dual Glo Luciferase Reagent (50 µL/well) was then added and firefly luciferase luminescence was read on an Envision after a ten minute incubation. Finally, Stop and Glo reagent (50 µL/well) was added and renilla luciferase luminescence was read on an Envision after a ten minute incubation. To calculate the effect of compounds on RORγt activity, the ratio of firefly to renilla luciferase was determined and plotted against compound concentration. Agonist compounds increase RORγt-driven luciferase expression, and antagonist or inverse agonist compounds decrease luciferase expression.

A word on the IC50: it is the concentration at which inhibition is half-maximal. A low value points to greater potency. One may read the Kd as the equilibrium constant for the complex coming apart. A word on the inhibition: it is the relative decrease from the control value, in per cent. With `COc1nc2ccc(C(O)c3ccc(C)nc3C)cc2c(Cl)c1Cc1ccc(C(F)(F)F)cc1` (single isomer, unassigned) [Example 14b, (4-Chloro-2-methoxy-3-(4-(trifluoromethyl)benzyl)quinolin-6-yl)(2,6-dimethylpyridin-3-yl)methanol], the midpoint of inhibition in assay [1] (Homo sapiens, CD4+ T, 72 h), the IC50, lay at 0.17 µM. For the same compound, the Kd in assay [2] was 0.13 µM. On human RORγt LBD, at 6 µM the inhibition was 97% and the half-maximal inhibitory concentration (IC50) was determined as 0.12 µM.

`COc1nc2ccc(C(O)c3ccc(C)nc3C)cc2c(Cl)c1Cc1ccc(C(F)(F)F)cc1` (single isomer, unassigned) [Example 14c, (4-Chloro-2-methoxy-3-(4-(trifluoromethyl)benzyl)quinolin-6-yl)(2,6-dimethylpyridin-3-yl)methanol] had an IC50 in assay [1] of 0.1 µM. Also, the Kd in assay [2] was 0.1 µM. Besides, on human RORγt LBD, the “RORγt (LBD) Reporter Assay, % inhibition @ 6 µM” value (shortened to “RORγt … % inhibition @ 6 µM”) came out at 98% and the IC50 worked out at 0.22 µM.

Consider `COc1nc2ccc(C(O)c3cnnn3C)cc2c(Cl)c1Cc1ccc(C(F)(F)F)cc1` (single isomer, unassigned) [Example 17b, (4-Chloro-2-methoxy-3-(4-(trifluoromethyl)benzyl)quinolin-6-yl)(1-methyl-1H-1,2,3-triazol-5-yl)methanol], for which the IC50 worked out at 0.44 µM in assay [1] and 0.24 µM at human RORγt LBD. Moreover, in assay [2], the Kd is 0.081 µM. In addition, testing at 6 µM on human RORγt LBD gave an inhibition of 96%.

In turn, `COc1nc2ccc(C(O)c3cnnn3C)cc2c(Cl)c1Cc1ccc(C(F)(F)F)cc1` (single isomer, unassigned) [Example 17c, (4-Chloro-2-methoxy-3-(4-(trifluoromethyl)benzyl)quinolin-6-yl)(1-methyl-1H-1,2,3-triazol-5-yl)methanol] yielded a 50% inhibitory concentration (IC50) in assay [1] of 0.14 µM. Besides, in assay [2], the Kd was 0.13 µM. Besides, at human RORγt LBD, the “RORγt … % inhibition @ 6 µM” value is given as 97% and half-maximal inhibition (IC50) required 0.21 µM.

Compound `COc1nc2ccc(C(O)c3cncn3C)cc2c(Cl)c1Cc1ccc(C(F)(F)F)cc1` (single isomer, unassigned) [Example 18c, (4-Chloro-2-methoxy-3-(4-(trifluoromethyl)benzyl)quinolin-6-yl)(1-methyl-1H-imidazol-5-yl)methanol] came in with a 50% inhibitory concentration (IC50) in assay [1] (Homo sapiens, CD4+ T, 72 h) of 0.65 µM. In addition, the Kd in assay [2] is 0.26 µM. Also, at human RORγt LBD, the “RORγt … % inhibition @ 6 µM” value stood at 96% and the IC50 was determined as 0.32 µM.

`Cc1ncc(C(O)c2ccc3nc(N4CCC4)c(Cc4ccc(-n5cccn5)cc4)c(Cl)c3c2)n1C` (single isomer, unassigned) [Example 21c, {2-Azetidin-1-yl-4-chloro-3-[4-(1H-pyrazol-1-yl)benzyl]quinolin-6-yl}(1,2-dimethyl-1H-imidazol-5-yl)methanol] came in with a 50% inhibitory concentration (IC50) in assay [1] (Homo sapiens, CD4+ T, 72 h) of 2.6 µM. Moreover, the Kd in assay [2] was 0.19 µM. For the same compound, at human RORγt LBD, the “RORγt … % inhibition @ 6 µM” value was 92% and the IC50 came to 0.45 µM.

The compound `Cc1ncc(C(O)c2ccc3nc(N4CCC4)c(Cc4ccc(C(F)(F)F)cc4)c(Cl)c3c2)n1C` (single isomer, unassigned) [Example 22b, {2-Azetidin-1-yl-4-chloro-3-[4-(trifluoromethyl)benzyl]quinolin-6-yl}(1,2-dimethyl-1H-imidazol-5-yl)methanol] registered a 50% inhibitory concentration (IC50) in assay [1] of 0.0094 µM. Also, in assay [2], the Kd was 0.055 µM. Moreover, on human RORγt LBD, at 6 µM the inhibition was 95% and it took 0.24 µM to reach half-maximal inhibition (IC50).

For the compound `Cc1ncc(C(O)c2ccc3nc(N4CCC4)c(Cc4ccc(C(F)(F)F)cc4)c(Cl)c3c2)n1C` (single isomer, unassigned) [Example 22c, {2-Azetidin-1-yl-4-chloro-3-[4-(trifluoromethyl)benzyl]quinolin-6-yl}(1,2-dimethyl-1H-imidazol-5-yl)methanol], the figures for the concentration for half-maximal inhibition (IC50) (in assay [1]; on human RORγt LBD) were 0.0029 µM and approximately 0.4 µM, respectively. Besides, the equilibrium dissociation constant (Kd) in assay [2] is 0.043 µM. At human RORγt LBD, the “RORγt … % inhibition @ 6 µM” value is reported as 96%.

In assay [1] (Homo sapiens, CD4+ T, 72 h), `Cc1ccc(C(O)c2ccc3nc(N4CCC4)c(Cc4ccc(C(F)(F)F)cc4)c(Cl)c3c2)c(C)n1` (single isomer, unassigned) [Example 23b, {2-Azetidin-1-yl-4-chloro-3-[4-(trifluoromethyl)benzyl]quinolin-6-yl}(2,6-dimethylpyridin-3-yl)methanol] registered a 50% inhibitory concentration (IC50) of 0.38 µM. The Kd in assay [2] is 0.11 µM. At human RORγt LBD, this compound yielded an inhibition at 6 µM of 98% and an IC50 of 0.22 µM.

Consider `Cc1ccc(C(O)c2ccc3nc(N4CCC4)c(Cc4ccc(C(F)(F)F)cc4)c(Cl)c3c2)c(C)n1` (single isomer, unassigned) [Example 23c, {2-Azetidin-1-yl-4-chloro-3-[4-(trifluoromethyl)benzyl]quinolin-6-yl}(2,6-dimethylpyridin-3-yl)methanol], for which the half-maximal inhibitory concentration (IC50) in assay [1] is 0.48 µM. Further, the equilibrium dissociation constant (Kd) in assay [2] was 0.2 µM. Further, on human RORγt LBD, the “RORγt … % inhibition @ 6 µM” value turned out to be 99% and half-maximal inhibition (IC50) required 0.28 µM.
